From publication PMC2970562, “High-Affinity Inhibitors of Human NAD^+-Dependent 15-Hydroxyprostaglandin Dehydrogenase: Mechanisms of Inhibition and Structure-Activity Relationships” (PLoS ONE, 2010)
Like-named read-outs stand apart in the source and are kept apart here.

What was measured:
human 15-PGDH [1] = biological target: T1, human 15-PGDH (Homo sapiens, UniProt P15428); assay: qHTS and 24-point re-test: fluorescence assay of NAD+ reduction to NADH on PGE2 oxidation (PubChem AID 894); format: biochemical; conditions: read-out: qHTS IC50
T1 construct: comprising residues 3–256 of the human HPGD gene (GenBank identifier: 1203982); His6 (GHHHHHH, behind the TEV site) (C, cleaved yes); made in house; host or cells: E. coli BL21(DE3)-R3
T1 sequence (P15428 3-256): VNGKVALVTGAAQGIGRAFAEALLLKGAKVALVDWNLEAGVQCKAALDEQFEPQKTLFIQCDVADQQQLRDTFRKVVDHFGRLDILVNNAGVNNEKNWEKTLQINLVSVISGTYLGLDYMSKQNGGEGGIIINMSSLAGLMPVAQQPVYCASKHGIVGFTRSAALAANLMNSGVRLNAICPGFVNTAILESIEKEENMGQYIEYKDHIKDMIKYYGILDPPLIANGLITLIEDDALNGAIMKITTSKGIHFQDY
Experimental: The assay was miniaturized to a 4-µL volume in 1536-well format: enzyme (3 µL) was dispensed first, followed by a pintool transfer of library compounds dissolved in DMSO. After equilibration, a substrate dispense (1 µL) initiated the enzymatic reaction (see Materials and Methods, for detailed protocol description). […] Hits associated with low-efficacy (<40% maximum inhibition), incomplete curves, as well as those displaying only a single-point inhibition at the top concentration tested were eliminated from further consideration. Similarly, the collection of real-time kinetic data allowed the autofluorescence of each compound to be evaluated by comparing the initial fluorescence read at top concentration with the mean value of uninhibited assay controls: compounds whose top-concentration initial well fluorescence exceeded six standard deviations over the mean were flagged as potential autofluorescent artifacts, [28] (see example in supplementary information Figure S1E). The complete screening and followup results are available in PubChem (PubChem Assay ID 894).
The enzymatic reaction was performed in 50 mM Tris-HCl pH 8.0, containing 0.01% Tween 20. […] The high-throughput screen was performed on a fully integrated robotic system (Kalypsys Inc, San Diego, CA) as described elsewhere. Library compounds, arrayed as seven-point inter-plate concentration series, were screened from the lowest (3.5 nM) to the highest (57.5 µM) concentration, with plates containing DMSO only, serving to note any systematic drifts in the signal, interspersed evenly throughout the screen (approximately every 50 plates). Briefly, 3 µL of reagents were dispensed into 1536-well Greiner black solid-bottom assay plates using integrated nanoliter solenoid-technology dispensers. Compounds and controls (23 nL) were transferred via Kalypsys pintool equipped with 1,536-pin array (10-nL slotted pins; V&P Scientific, Palo Alto, CA). After a 15-minute incubation (to allow for interaction between compound and enzyme), a 1-µL substrate addition step initiated the reaction. Kinetic data were collected on a ViewLux High-throughput CCD imager (Perkin-Elmer) equipped with standard UV fluorescence optics (exc. 340 nm, em. 450 nm).
Starting fluorescence intensity and the change in fluorescence over the two-minute initial rate period were recorded for every well. Screening data were normalized against no-enzyme (64 wells, columns 3 and 4) and no-compound (32 wells located in column 1) controls, and concentration-response relationships were derived as described previously. A four-parameter Hill equation [47] was fitted to the concentration-response data using publicly available algorithms (http://www.ncgc.nih.gov/pub/openhts/curvefit/).

human 15-PGDH [2] = biological target: T1, human 15-PGDH; assay: Differential scanning fluorimetry (DSF), thermal stabilization; format: binding; conditions: 1 µM protein, compound 50 or 250 µM, N/A = no unfolding transition observed in DSF; for ∆Tm [°C] NAD+: with 200 µM NAD+; for ∆Tm [°C] NADH: with 200 µM NADH; for ∆Tm [°C] apo: without cofactor
Experimental: A correlation between the ΔTm and the inhibitory potency has been shown in a number of protein-ligand systems, particularly for kinases [32]–[34].
Studies to assess the thermal stability of human 15-PGDH in presence of compounds were performed as described previously, with variations. Briefly, the protein was diluted to a final assay concentration of 1 µM in 100 mM Tris buffer pH 8.0, containing 0.01% Tween-20 and 1∶1000 SYPRO orange dye (Invitrogen). […] Compounds were added at a ratio of 1∶5 from appropriate stock solutions in 10% (v/v) DMSO to comprise either 50 or 250 µM final concentrations. Heat denaturation curves were recorded using a RT-PCR instrument (Mx3005p, Agilent) applying a temperature gradient of 2°C/min. […] 2.5 (ftp://ftp.sgc.ox.ac.uk/pub/biophysics) and PRISM 5.0 (GraphPad Software, Inc.).

[3] = potency in 24-point titrations on re-test, 20 nM 15-PGDH, 1 mM NAD+, 30 µM PGE2, pH 8.0

Compound	IC50 (human 15-PGDH [1]; [3]) [nM]	∆Tm [°C] NAD+ (human 15-PGDH [2]) [°C]	∆Tm [°C] NADH (human 15-PGDH [2]) [°C]	∆Tm [°C] apo (human 15-PGDH [2]) [°C]	IC50 (human 15-PGDH [1]) [nM]
CCCCCCOCCCCc1ccc(-c2ccc(OCCCCCCC3CC3)nc2)nn1 [Compound 3]	562	2.1	6.7	-0.6	
Cc1ccc2cc3c(N)c(C(=O)N4CCC(C)CC4)sc3nc2c1 [Compound 48]	1000	0.5	3.3	-0.6	
Cc1ccccc1C(=O)N1CCc2ccccc2C1 [Compound 18]	2510	1.5	2.2	-1.1	
Cc1cc(=O)oc2cc(OCC(=O)N3CCCc4ccccc43)ccc12 [Compound 79]	1120			-4.1	
COCCNC(=O)c1cc2oc3ccccc3c2n1C [Compound 45]	1580	2.7	2.9	-1.9	
CCCCCCCCNCCOCCOCCOCCOCCNCCCCCCCC [Compound 31]	3980	1.1	4.8	-0.1	
CC(C)(C)OC(=O)NC(Cc1csc2ccccc12)C(=O)CCc1cc(C(F)(F)F)cc(C(F)(F)F)c1 (stereo not shown) [Compound 50]	6310	1.9	1.7	-1.9	
Fc1ccccc1CSc1nc2cc(Br)cnc2[nH]1 [Compound 60]	631	7.6	1.5	-0.2	
CN(CCc1ccccn1)CC(=O)Nc1ccc(OC(F)(F)F)cc1 [Compound 78]	2510	4.0	-7.6	-7.4	
CC(O)CN(C)C(C)N(CCN(C)C)CCN(C)C (stereo not shown) [Compound 56]	1000	6.1	0.4	0.0	
COc1ccc(NS(=O)(=O)Cc2ccccc2Cl)cc1 [Compound 42]	316	7.5	4.8	-0.5	
COc1ccccc1NS(=O)(=O)c1cc(C(=O)N2CCC2)ccc1C [Compound 30]	562	2.4	6.4	0.2	
Cc1cc([N+](=O)[O-])c2c(c1C)[C@@H]1C=CC[C@@H]1C(c1cccc(Cl)c1)N2 (stereo partly shown) [Compound 37]	2000	1.1	5.0	-2.0	
CN(Cc1cccc(Cl)c1)c1ccc(S(C)(=O)=O)cc1S(C)(=O)=O [Compound 12]	355	2.2	7.1	-1.6	
CCCC(NC(=O)Cn1c(-c2cccs2)n[nH]c1=S)c1ccccc1 (stereo not shown) [Compound 23]	2240	1.2	1.6	-0.4	
CCCCCCCCCOC(=O)c1ccc2c(c1)N(CCCS(=O)(=O)O)/C(=C\C=C\c1n(CCCS(=O)(=O)O)c3cc(C(=O)OCCCCCCCCC)ccc3[n+]1CC)N2CC [Compound 68]	447				

Other lines, results leading:

IC50 (human 15-PGDH [1]; [3]) [nM]	∆Tm [°C] NAD+ (human 15-PGDH [2]) [°C]	∆Tm [°C] NADH (human 15-PGDH [2]) [°C]	∆Tm [°C] apo (human 15-PGDH [2]) [°C]	IC50 (human 15-PGDH [1]) [nM]	Compound
1120	3.7	4.7	0.1		Brc1ccc(-c2cc3n(n2)CCc2nc4ccccc4n2-3)cc1 [Compound 55]
501	4.5	0.2			Cc1ccc(-c2nnc(S)n2N=CC=Cc2ccccc2[N+](=O)[O-])cc1 [Compound 80]
224	3.1	7.9	0.3		COC(=O)c1cc(CNC(=O)C2(c3ccc(Cl)cc3)CC2)ccc1OC [Compound 20]
2240	6.9	1.7	-6.1		Cc1cc(C(=O)N2CCN(C)CC2)c(C)n1C1CC1 [Compound 59]
	2.3	7.1	-0.8	631	CC1CCN(C(=O)c2ccc(CSc3ccc(Cl)cc3)cc2)CC1 [Compound 5]
200	3.0	6.6	-1.4		C=CCN1C(=O)[C@@H](CC(=O)Nc2cc(C)ccc2C)SC1=Nc1cc(C)cc(C)c1 [Compound 8]
2510	6.0	3.9	-1.5		Cc1ccc(C2=NC(=CN3CCOCC3)C(=O)O2)cc1 [Compound 54]
2240	9.2	1.6	-0.3		COc1ccc(C(=O)OCC(=O)Nc2c(C)cccc2C)cc1S(=O)(=O)N(C)C [Compound 57]
1000	2.2	4.7	0.3		COc1ccccc1C(=O)Nc1ccc(C(=O)N2CCCC2)cc1 [Compound 4]
282	3.9	9.6	-1.4		CCCC(C(=O)O)C(C)(C)O (stereo not shown) [Compound 32]
2510	2.4	-0.4	-1.8		O=c1c2ccccc2sn1-c1cc(S(=O)(=O)N2CCOCC2)ccc1N1CCCC1 [Compound 71]
224	2.2	7.8	-1.1		O=C(O)CC1(CO)CC1 [Compound 9]
224	3.5	7.8	-1.8		Cc1cc(NC(=O)COC(=O)c2cccc(S(=O)(=O)NC(C)(C)C)c2)no1 [Compound 16]
501	2.7	8.4	-0.1		CN(C)C(=O)C(NCCc1c[nH]c2ccccc12)c1ccccc1 (stereo not shown) [Compound 29]
126	3.8	10.6	-0.4		CC1CCCN(C(=O)c2ccc(COc3ccccc3Br)cc2)C1 (stereo not shown) [Compound 11]
10000	0.9	2.9	-1.5		CCN(CC)C(=O)c1sc2nc(-c3cccs3)cc(-c3ccc(Cl)cc3)c2c1N [Compound 36]
7080	1.2	2.2	-0.1		COc1ccc(C2C(C(=O)O)c3ccccc3C(=O)N2Cc2ccccc2)cc1 (stereo not shown) [Compound 35]
794	1.7	6.0	-0.6		C=C(C(=O)OC)C1CCC2(C)C(OC(=O)C(Cc3ccc(O)cc3)OC(=O)C(O)C(C)C)CCC(O)(COC3OC(CO)C(O)C(O)C3O)C2C1O (stereo not shown) [Compound 2]
